These results are taken from ChEMBL document CHEMBL5113489, “Design, synthesis, and biological evaluation of membrane-active honokiol derivatives as potent antibacterial agents” (Eur J Med Chem, 2022).

A value given as a limit tells only on which side of the number the result lay.

For data set [1], the system named is Staphylococcus aureus. As to the kind of experiment: Antibacterial activity against Staphylococcus aureus ATCC 31007. The data set is classed as functional.
The subject of data set [2] is Staphylococcus aureus. As to the kind of experiment: Antibacterial activity against Staphylococcus aureus ATCC 25923. The data set is classed as functional.
Data set [3] is described as follows: Selectivity index, ratio of HC50 for hemolytic activity in sheep RBC to MIC for antibacterial activity against Staphylococcus aureus ATCC 43300. To be noted: sheep red blood cells (erythrocytes). The data set is classed as toxicity.
Data set [4] has as its system Staphylococcus aureus. As to the kind of experiment: Antibacterial activity against Staphylococcus aureus ATCC 43300. Format: functional.
The subject of a further data set is Bacillus subtilis. As to the kind of experiment: Antibacterial activity against Bacillus subtilis ATCC 9372. Format: functional.
In a further data set the test system is Pseudomonas aeruginosa. As to the kind of experiment: Antibacterial activity against Pseudomonas aeruginosa ATCC 27853. The data set is classed as functional.
The subject of data set [5] is Escherichia coli. As to the kind of experiment: Antibacterial activity against Escherichia coli ATCC 25922. Format: functional.
The nature of data set [6]: Hemolytic activity in sheep RBC. The data set is classed as toxicity, cell-based, Ovis aries, Erythrocyte. The note with it: sheep red blood cells (erythrocytes).
Data set [7] deals with Staphylococcus aureus. As to the kind of experiment: Antibacterial activity against Staphylococcus aureus ATCC 43300 assessed as resistance development by measuring fold increase in MIC. The data set is classed as functional.
Data set [8] deals with Escherichia coli. As to the kind of experiment: Antibacterial activity against Escherichia coli ATCC 25922 assessed as resistance development by measuring fold increase in MIC. The data set is classed as functional.
Data set [9] deals with Staphylococcus aureus. As to the kind of experiment: In vivo antibacterial activity against Staphylococcus aureus ATCC 43300 in septicemia mouse model assessed as log reduction in bacterial load in kidney at 5 mg/kg, administered every 12 hrs for 3 days. Format: functional.
For data set [10], the system named is Staphylococcus aureus. As to the kind of experiment: In vivo antibacterial activity against Staphylococcus aureus ATCC 43300 in septicemia mouse model assessed as log reduction in bacterial load in liver at 5 mg/kg, administered every 12 hrs for 3 days. The data set is classed as functional.
The subject of data set [11] is Staphylococcus aureus. As to the kind of experiment: In vivo antibacterial activity against Staphylococcus aureus ATCC 43300 in septicemia mouse model assessed as log reduction in bacterial load in spleen at 5 mg/kg, administered every 12 hrs for 3 days. The data set is classed as functional.

As to `C=CCc1ccc(OCC(=O)NCCC[N+](C)(C)CCCCCC)c(-c2ccc(OCC(=O)NCCC[N+](C)(C)CCCCCC)c(CC=C)c2)c1.[Br-].[Br-]`, the MIC worked out at 16 µg/mL against Staphylococcus aureus [1]; 8 µg/mL against Staphylococcus aureus [2]; 16 µg/mL against Staphylococcus aureus [4]; 16 µg/mL against Bacillus subtilis; 128 µg/mL in the data set on Pseudomonas aeruginosa; 16 µg/mL against Escherichia coli [5]. Moreover, the selectivity ratio in data set [3] was found to be 11.4. The same compound gave an HC50 in data set [6] of 183 µg/mL.

On to `C=CCc1ccc(OCCCN)c(-c2ccc(OCCCN)c(CC=C)c2)c1.Cl.Cl`, for which the MIC was 8 µg/mL in the data set with Staphylococcus aureus [1]; 4 µg/mL in the data set on Staphylococcus aureus [2]; 4 µg/mL against Staphylococcus aureus [4]; 32 µg/mL against Bacillus subtilis; 64 µg/mL in the data set on Pseudomonas aeruginosa; > 128 µg/mL in the data set with Escherichia coli [5]. Further, in data set [3], the selectivity ratio amounted to 110. Also, the HC50 in data set [6] came out at 438 µg/mL.

Regarding `CCn1cc(C(=O)O)c(=O)c2cc(F)c(N3CCNCC3)cc21` [NORFLOXACIN], the “fold change (FC)” value with Staphylococcus aureus [7] was 256.

Turning to COLISTIN, the MIC with Staphylococcus aureus [1] was 128 µg/mL; against Staphylococcus aureus [2], 64 µg/mL; in the data set on Staphylococcus aureus [4] it was 64 µg/mL; against Bacillus subtilis, 8 µg/mL; in the data set with Pseudomonas aeruginosa, 1 µg/mL; against Escherichia coli [5], 2 µg/mL. In addition, the fold change (FC) in the data set with Escherichia coli [8] was determined as 64.

For the compound `C=CCc1ccc(OCC(=O)NCCC[N+](C)(C)CCCCCCCC)c(-c2ccc(OCC(=O)NCCC[N+](C)(C)CCCCCCCC)c(CC=C)c2)c1.[Br-].[Br-]`, the MIC against Staphylococcus aureus [1] was determined as 4 µg/mL; with Staphylococcus aureus [2], 2 µg/mL; against Staphylococcus aureus [4], 2 µg/mL; with Bacillus subtilis it was 4 µg/mL; against Pseudomonas aeruginosa, 16 µg/mL; in the data set on Escherichia coli [5], 8 µg/mL. Further, the selectivity ratio in [3] came out at 61.5. This compound displayed an HC50 in data set [6] of 123 µg/mL.

Regarding `C=CCc1ccc(OCC(=O)NCCC[N+](C)(C)CCCCCCCCCC)c(-c2ccc(OCC(=O)NCCC[N+](C)(C)CCCCCCCCCC)c(CC=C)c2)c1.[Br-].[Br-]`, the MIC with Staphylococcus aureus [1] worked out at 4 µg/mL; with Staphylococcus aureus [2] it was 2 µg/mL; in the data set with Staphylococcus aureus [4], 4 µg/mL; in the data set with Bacillus subtilis it was 8 µg/mL; against Pseudomonas aeruginosa, 128 µg/mL; in the data set with Escherichia coli [5], 32 µg/mL. In addition, the selectivity ratio in [3] stood at 13.2. Also, the HC50 in data set [6] is 53 µg/mL.

`C=CCc1ccc(OCCC[N+](C)(C)CCCC)c(-c2ccc(OCCC[N+](C)(C)CCCC)c(CC=C)c2)c1.[Br-].[Br-]`: the MIC was 8 µg/mL with Staphylococcus aureus [1]; 4 µg/mL with Staphylococcus aureus [2]; 4 µg/mL in the data set with Staphylococcus aureus [4]; 4 µg/mL against Bacillus subtilis; 128 µg/mL in the data set with Pseudomonas aeruginosa; 16 µg/mL in the data set on Escherichia coli [5]. Besides, the selectivity ratio in [3] was found to be 295. The HC50 in [6] was found to be 1180 µg/mL.

Turning to `O=C(O)c1cn(C2CC2)c2cc(N3CCNCC3)c(F)cc2c1=O` [CIPROFLOXACIN], the entries for the “log(activity)” value in the data set with Staphylococcus aureus [9], with Staphylococcus aureus [10] and in the data set with Staphylococcus aureus [11] were 1.56, 2.01 and 1.52, respectively.

In the case of `C=CCc1ccc(OCC(=O)NC(CCCCN)C(=O)NCC23CC4CC(CC(C4)C2)C3)c(-c2ccc(OCC(=O)NC(CCCCN)C(=O)NCC34CC5CC(CC(C5)C3)C4)c(CC=C)c2)c1.O=C(O)C(F)(F)F.O=C(O)C(F)(F)F` (stereo not drawn), the MIC in the data set with Staphylococcus aureus [1] is 4 µg/mL; in the data set on Staphylococcus aureus [2] it was 8 µg/mL; against Staphylococcus aureus [4] it was 4 µg/mL; in the data set on Bacillus subtilis, 4 µg/mL; against Pseudomonas aeruginosa, > 128 µg/mL; in the data set with Escherichia coli [5], > 128 µg/mL. The selectivity ratio in data set [3] was > 320. In data set [6], this compound displayed an HC50 of 1280 µg/mL.

`C=CCc1ccc(OCCN)c(-c2ccc(OCCN)c(CC=C)c2)c1.Cl.Cl`: the minimal inhibitory concentration (MIC) was 16 µg/mL against Staphylococcus aureus [1]; 8 µg/mL against Staphylococcus aureus [2]; 8 µg/mL against Staphylococcus aureus [4]; 32 µg/mL with Bacillus subtilis; 64 µg/mL against Pseudomonas aeruginosa; 16 µg/mL in the data set on Escherichia coli [5]. Besides, the selectivity ratio in data set [3] was determined as 86.7. Moreover, the HC50 in data set [6] worked out at 694 µg/mL.

For the compound `C=CCc1ccc(OCC(=O)NC(CCCCN)C(=O)NCCCCCCCCCC)c(-c2ccc(OCC(=O)NC(CCCCN)C(=O)NCCCCCCCCCC)c(CC=C)c2)c1.O=C(O)C(F)(F)F.O=C(O)C(F)(F)F` (stereo not drawn), the MIC came out at 8 µg/mL against Staphylococcus aureus [1]; 4 µg/mL with Staphylococcus aureus [2]; 4 µg/mL in the data set with Staphylococcus aureus [4]; 4 µg/mL with Bacillus subtilis; 16 µg/mL against Pseudomonas aeruginosa; 16 µg/mL against Escherichia coli [5]. Moreover, the selectivity ratio in data set [3] is > 320. In addition, in data set [6], the HC50 was > 1280 µg/mL.

Turning to `C=CCc1ccc(OCCC[N+](C)(C)CCCCCCCC)c(-c2ccc(OCCC[N+](C)(C)CCCCCCCC)c(CC=C)c2)c1.[Br-].[Br-]`, the MIC in the data set with Staphylococcus aureus [1] was determined as 2 µg/mL; in the data set on Staphylococcus aureus [2] it was 2 µg/mL; in the data set on Staphylococcus aureus [4], 2 µg/mL; in the data set on Bacillus subtilis, 1 µg/mL; against Pseudomonas aeruginosa it was 16 µg/mL; with Escherichia coli [5], 8 µg/mL. The selectivity ratio in data set [3] amounted to 18. Moreover, the HC50 in [6] turned out to be 36 µg/mL.

One may read the MIC as the lowest concentration found to suppress growth. Read a high MIC as a need for much substance. The term HC50 denotes the concentration that lyses half of the red blood cells.
